We go through ten molecules from patent US5646316A, “Bile acid inhibitors of metalloproteinase enzymes” (OsteoArthritis Sciences, Inc., priority 1995, dated 1997).

SMILES strings stand for the structures. Where two headings read alike, the source gives them in different places.

One assay addresses stromelysin (Homo sapiens, UniProt P08254). The assay is described as follows: Assay of Stromelysin Inhibition Activity (fluorogenic substrate hydrolysis). The conditions noted are these: for inhibition at 10 µM: read-out: percent inhibition of stromelysin. It counts as biochemical. Here is the method:
(§1) Stromelysin was first activated by trypsin. This was done by preparing a reaction mixture in B-150 (B-150 consists of 150 mM NaCl, 20 mM Tris at pH 7.8 and 0.02% sodium azide) containing a final concentration of 4 μg/mL trypsin, 1.48 μg/mL of stromelysin, and 3.15 mM CaCl2. The reaction was incubated for 30 minutes at 37° C. and then quenched by adding soybean trypsin inhibitor to a final concentration of 43.6 μg/mL. ZnCl2 was added to the reaction mixture for a total concentration of 0.24 μM.
(§2) Following preparation of the solution of activated stromelysin, assay solutions were prepared for each inhibitor being tested. A control was also prepared. First, […] of activated stromelysin (about 45 μL from the solution of activated stromelysin) were aliquotted per assay tube. A 2.5 mM solution in 100% dimethyl sulfoxide (DMSO) was prepared for each inhibitor being tested and 1 μL from each inhibitor solution was added to one of the assay tubes. In addition, 1 μL of 100% DMSO was added to the control assay tube. All assay tubes were then pre-incubated for 5 minutes.
(§3) 5 μL of a previously prepared 50 μM solution of substrate in 15% DMSO were added to each assay tube. The substrate was a methoxycumarin developed by Knight et al. FEBS Lett. 296:263-66 (1992). The tubes were then incubated for 60 minutes, at which time the reaction was stopped with the addition of 750 μL of 0.1M NaAc pH 4.0 buffer.
(§4) Substrate hydrolysis was assessed by fluorescence using a slit width of 10:10, excitation at 328 nm and emission at 393 nm. The results of these assays are listed in Table I as percent inhibition at 10 μM of the bile acid provided compound tested or as the IC50.

A further assay relates to chondrocytes. Kind of assay: Chondrocyte Cell Culture Matrix Breakdown Assay (35S release, rhIL-1α stimulated). It counts as cell-based, calf. Particulars: Bos taurus, Chondrocyte, read-out: percent inhibition, Cell Culture. Here is the method:
A cell culture assay was used to measure the ability of compounds to slow the degradation of the extracellular matrix by a metalloproteinase. This assay measured the amount ^35 S released from chondrocytes grown in a media with ^35 S labeled sodium sulfate. The cell culture assay was carried out as follows:
Two or three 1 to 3 week old calf joints were obtained from an abattoir. The proximal end of the shank was at about 4-5" long to facilitate immobilization in the holder. The joint was kept cool and transported on ice. The exterior of the intact joints was washed well with a suitable anti-microbial soap, rinsed clean with warm water, rinsed in betadine and then finally rinsed with 70% ethanol. Up to this point all steps were done in a manner to ensure that the joint was kept as clean as possible. All subsequent steps were performed in a sterile field (i.e., in a Edgeguard laminar flow tissue culture hood). The joint was immobilized and the synovial fluid was aspirated with a needle and syringe. The joint was then cut open to expose the articular cartilage using a #21 scalpel. Using locking hemostats, forceps and a #15 scalpel, the cartilage was excised in full thickness pieces. Care was taken not to cut too deep because bleeding would have occurred if the subchondral bone, was penetrated. The cartilage pieces were placed into a 50 mL centrifuge tube containing 25 mL of Delbecco's phosphate buffered saline (D-PBS) supplemented with 1% antibiotic solution (penicillin, streptomycin and fungizone; GIBCO/BRL). The slices from each joint were then placed into separate 50 mL centrifuge tubes. The D-PBS was decanted and replaced with 25 mL of fresh D-PBS supplemented with antibiotics and subsequently agitated gently.
The cartilage pieces were transferred to a fresh 50 mL centrifuge tube and rinsed once more with 25 mL of D-PBS minus antibiotics. An enzymatic digestion solution containing 1 mg/mL of hyaluronidase in serum-free 1:1 DMEM/Ham's F-12 (DMEM/F12) was prepared. This solution was filter sterilized with […] Milex--GV filter and kept on ice until ready to use. The cartilage pieces were digested with approximately 5 mL of hyaluronidase solution per joint for 2×15 minutes at 37° C. in the 50 mL centrifuge tube with gentle agitation at the 15 minute mark. This procedure removed residual hyaluronic acid from the surface of the chips. The enzymatic digestion solution was then aspirated and the cartilage pieces were rinsed with 25 mL of D-PBS.
A second enzymatic digestion solution containing 2.5 mg trypsin and 2 mg collagenase P per mL serum-free DMEM/F12 was prepared. This solution was also filter sterilized with a […] Millex--GV filter and kept on ice until ready to use. The cartilage pieces were digested with approximately 5 mL of trypsin: collagenase solution per joint for 2×15 minutes at 37° C. in the 50 mL centrifuge tube with gentle agitation at the 15 minute mark. This procedure removed the synovial fibroblasts and any adherent connective tissue from the surface of the chips. The enzymatic digestion solution was then carefully removed and saved and the cartilage pieces were rinsed with 25 mL of D-PBS.
A third enzymatic solution containing 2 mgs of collagenase P (BMB) per mL serum-free DMEM/F12 was prepared. This solution was filter sterilized with a […] Millex--GV filter and kept on ice until ready to use. The pre-digested cartilage pieces were finally digested with approximately 20 mL of enzymatic digestion solution per joint for 5-6 hours at 37° C. in a Bellco stirring digestion flask, at which point the cartilage was fully digested away.
The enzymes in the synovial fibroblast and chondrocyte digest were neutralized by addition of an equal volume of DMEM/F12 supplemented with 5% fetal bovine serum. Fibroblasts were plated in DMEM at a cellular density of 6.6×10^3 cells per cm^2. […]

In another assay the test system is collagenase. The assay is described as follows: Assay of Collagenase Inhibition Activity. It counts as biochemical. The conditions noted are these: at 10 μM of compound; 45 minutes at 37° C. The method, then:
as §1, §2, §3, §4
The assay procedure for collagenase was the same as described in Example 13 for stromelysin except that the trypsin activation was performed for 45 minutes. In addition, the incubation of the assay tubes at 37° C. was only for 45 minutes, and the final enzyme concentration is 6 nm. The results of these assays are provided in Table I as percent inhibition at 10 μM of the compound tested.

The test system of assay [1] is bovine cartilage explants. The assay is described as follows: Bovine Cartilage Explant Assay (35S-GAG release, rhIL-1α stimulated; tissue culture). The class given is cell-based. The conditions noted are these: Bos taurus; at 50 μM; rhIL-1α 5 ng/mL; 3-4 days; read-out: percent inhibition of extracellular matrix damage, Tissue Culture. The source says: A tissue culture assay was used to measure the ability of the compounds of the present invention to slow the degradation of the extracellular matrix by metalloproteinases. This assay measured the amount of ^35 S-glycosaminoglycan (^35 S-GAG) released from labeled bovine cartilage explants.
Knee joints from a 1 to 3 week old calf were obtained immediately after sacrifice from the Abattoir and then transported on ice. The intact joints were washed well with tap water and soaked in 50% (v/v) Povidine iodine solution, obtained from Burre National, Inc., Baltimore, Md. All subsequent steps were performed in a laminar flow tissue culture hood using standard sterile technique. The joint was immobilized in a shank holder and the joint capsule was cut open to expose the articular cartilage. Cartilage explant plugs, approximately 15 mg wet weight, were removed from the flat articulating surfaces in the lower-most region of the knee joint using a sterile steel cork-borer and collected in a 250 mL roller bottle containing about 100 mL fresh Delbecco's minimum essential medium (DMEM), obtained from Gibco BRC, Life Technologies, Gaithersburg, Md., containing 4.5 g/1 (D)-glucose and (L)-glutamine, without sodium pyruvate. The fresh media also contained enough Hepes buffer and sodium bicarbonate such that the pH was about 7.4. The media was then further supplemented just before use with 100 units Penicillin, 100 μg Streptomycin, and 50 μg (L)-ascorbic acid per mL of medium.
Once collected, the explant plugs were washed four times with 50 mL fresh DMEM. The plugs were then placed in the incubator for a minimum of 1 hour to equilibrate, before proceeding to make disks from the articulating surface of each plug. A 1 mm thick disk was sliced from individual plugs from the end that was the articulating surface of the joint. The plug was held steady in the sterile template (4 mm diameter×1.5 mm deep) using sterile forceps. A scalpel blade was used to carefully slice off the disk. Only the superficial articulating surface responded well in culture.
Individual disks obtained were transferred to a tissue culture flask containing about 100 mL fresh media. The flask containing the disks was placed in an incubator at 37° C. (with 5% CO2, 95% air) and allowed to equilibrate overnight and at least one additional day before labeling. When ready to label, the old media was replaced with 50 mL fresh media containing about 500 μCi ^35 S-Sodium Sulfate. The plugs were labeled in bulk for about 48 hours. The next morning, the "hot" media was removed and replaced with fresh "cold" media. The disks were again allowed to equilibrate overnight before being used for actual experiments.
The media in which the disks were stored was changed immediately prior to performing the assay. The disks were then returned to the incubator until the test media and the two control media had been prepared. The test media consisted of a bile acid or bile acid derivative (50 μM) being tested for its ability to inhibit extracellular matrix degradation and concomitant recombinant human Interleukin rhIL-1α (5 ng/mL) in fresh DMEM solution. The control media were identical to the test media, except that the first control media lacked rhIL-1α and the second control media lacked an inhibitor, i.e. a bile acid or bile acid derivative. 250 μL of each of the test and control media were transferred to separate 96-well TC plates. Flamed forceps were used to transfer a disk from the incubator to each 96-well TC plates that had been filled with either the test media or one of the two control media.
The TC plates were then placed in the incubator and cultured for 3-4 days (initial incubation with rhIL-1α alpha takes at least 3 days to stimulate endogenous metalloproteinases). A 50 μL aliquot of media from each TC plate was saved and counted. The rest of the media was removed with a suction device.
The cartilage disks from each TC plate were also saved for counting. […]

Setting [2] is: at 50 μM, rhIL-1α 1 ng/ml, 22-24 hours.

Chain of stromelysin (P08254 100-477): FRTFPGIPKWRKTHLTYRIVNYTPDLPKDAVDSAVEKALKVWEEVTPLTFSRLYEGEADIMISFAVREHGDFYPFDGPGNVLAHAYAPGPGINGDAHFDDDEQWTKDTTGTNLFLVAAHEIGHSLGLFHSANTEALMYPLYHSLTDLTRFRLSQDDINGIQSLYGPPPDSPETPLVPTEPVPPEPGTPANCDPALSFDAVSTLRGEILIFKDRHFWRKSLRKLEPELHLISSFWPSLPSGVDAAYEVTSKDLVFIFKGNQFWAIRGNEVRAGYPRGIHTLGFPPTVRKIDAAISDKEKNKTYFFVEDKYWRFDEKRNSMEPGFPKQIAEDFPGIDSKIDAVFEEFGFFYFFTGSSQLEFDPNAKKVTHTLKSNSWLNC

With `C[C@H](CCC(=O)O)[C@H]1CC[C@H]2[C@@H]3CC[C@@H]4C[C@H](O)CC[C@]4(C)[C@H]3C[C@H](O)[C@]12C` [Compound 2, deoxycholic acid, reference compound], at stromelysin, the inhibition at 10 µM is 23%. Also, the inhibition at 50 µM in the assay with chondrocytes (setting [2]) was -14%.

Take `C[C@H](CCC(=O)O)[C@H]1CC[C@H]2[C@@H]3[C@@H](O)C[C@@H]4C[C@H](O)CC[C@]4(C)[C@H]3CC[C@]12C` [Compound 3, ursodeoxycholic acid, reference compound]: the inhibition at 10 µM on stromelysin (at 10 μM of compound) came to 21%. Besides, the inhibition at 50 µM in the assay on chondrocytes (setting [2]) was found to be 5%.

For `C[C@H](CCC(=O)O)[C@H]1CC[C@H]2[C@@H]3C[C@H](O)[C@@H]4C[C@H](O)CC[C@]4(C)[C@H]3CC[C@]12C` [Compound 4, hyodeoxycholic acid, reference compound], on stromelysin (at 10 μM of compound), the inhibition at 10 µM came to 18%. Further, the inhibition at 50 µM in the assay with chondrocytes (setting [2]) was found to be 7%.

Take `C[C@H](CCC(=O)NCCC[N+](C)(C)CC(O)CS(=O)(=O)[O-])[C@H]1CC[C@H]2[C@@H]3[C@H](O)C[C@@H]4C[C@H](O)CC[C@]4(C)[C@H]3C[C@H](O)[C@]12C` (stereo partly drawn) [Compound 5, 3-[(3-cholamidopropyl)dimethylammonio]-2-hydroxy-1-propanesulfonate, reference compound]: the inhibition at 10 µM on stromelysin turned out to be 15%. The inhibition at 50 µM in the assay with chondrocytes came out at 35%.

As to `C[C@H](CCC(=O)O)[C@H]1CC[C@H]2[C@@H]3[C@H](O)C[C@@H]4C[C@H](O)CC[C@]4(C)[C@H]3CC[C@]12C` [Compound 6, Chenodeoxycholic acid, reference compound], the “percent inhibition of collagenase” value with collagenase amounted to 6%. In addition, in assay [1], the inhibition at 50 µM was 23%.

For the molecule `C[C@H](CCC(=O)NO)[C@H]1CC[C@H]2[C@@H]3[C@H](O)C[C@@H]4C[C@H](O)CC[C@]4(C)[C@H]3CC[C@]12C` [Compound 14, Chenodeoxycholyhydroxamic Acid], the “percent inhibition of collagenase” value in the assay on collagenase was determined as 19%. Further, the inhibition at 50 µM with chondrocytes (setting [2]) is 77%.

On stromelysin (60 minutes incubation), `C[C@H](CCC(=O)N[C@H](Cc1ccccc1)C(=O)NO)[C@H]1CC[C@H]2[C@@H]3CC[C@@H]4C[C@H](O)CC[C@]4(C)[C@H]3CC[C@]12C` [Compound 22, Lithocholyl-(D)-Phenylalanine Hydroxamic Acid] gave an IC50 of 1200 nM. In addition, in the assay with chondrocytes (setting [2]), the inhibition at 50 µM was 5%.

Regarding `C[C@H](CCC(=O)NO)[C@H]1CC[C@H]2[C@@H]3[C@H](O)C[C@@H]4C[C@H](O)CC[C@]4(C)[C@H]3C[C@H](O)[C@]12C` [Compound 23, Cholylhydroxamic Acid], the inhibition at 10 µM on stromelysin (at 10 μM of compound) is 12%. Besides, the inhibition at 50 µM in the assay with chondrocytes (setting [2]) was -20%.

For `C[C@H](CCC(=O)N[C@@H](CCc1ccccc1)C(=O)NO)[C@H]1CC[C@H]2[C@@H]3CC[C@@H]4C[C@H](O)CC[C@]4(C)[C@H]3CC[C@]12C` [Compound 27, Lithocholyl-(L)-homophenylalanine Hydroxamic Acid], the inhibition at 10 µM at stromelysin (at 10 μM of compound) was determined as 90%.

As for `C[C@H](CCC(=O)N[C@H](CCc1ccccc1)C(=O)NO)[C@H]1CC[C@H]2[C@@H]3CC[C@@H]4C[C@H](O)CC[C@]4(C)[C@H]3CC[C@]12C` [Compound 28, Lithocholyl-(D)-homophenylalanine Hydroxamic Acid], the inhibition at 10 µM on stromelysin (at 10 μM of compound) came out at 92%.

Broadly, the inhibition is the relative decrease from the control value, in per cent. For orientation: IC50 means the concentration that gives 50% inhibition. The low end stands for greater potency, the high end for weaker potency.
